Data as given in publication doi:10.1101/2021.02.09.430557v1 (biorxiv, 2021).

Target: T1, AnHSD (Paenarthrobacter nicotinovorans, UniProt A0ABT9TQY6)
T1 sequence (A0ABT9TQY6 1-348): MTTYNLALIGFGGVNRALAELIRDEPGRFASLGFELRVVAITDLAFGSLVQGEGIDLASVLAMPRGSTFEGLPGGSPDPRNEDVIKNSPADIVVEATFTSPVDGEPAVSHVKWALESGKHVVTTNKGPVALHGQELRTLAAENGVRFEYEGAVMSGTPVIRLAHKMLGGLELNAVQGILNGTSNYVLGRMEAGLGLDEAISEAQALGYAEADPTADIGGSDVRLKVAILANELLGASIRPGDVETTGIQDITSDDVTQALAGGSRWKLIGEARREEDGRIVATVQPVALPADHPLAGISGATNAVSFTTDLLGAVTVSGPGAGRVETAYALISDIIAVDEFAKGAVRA
Assay: residual L-homoserine oxidation activity, absorbance at […] nm
Assay type: biochemical
Details: read-out: Relative activity (%) at 10 mM

`N[C@@H](CC(=O)O)C(=O)O` [L-aspartate] showed an activity at 10000 µM of 76.7 ± 1.53%.
